Test results as given in US10022453B2 (BAYER PHARMA AKTIENGESELLSCHAFT, priority 2013, dated 2018).

What was measured:
[1] = Cell permeability, flux assay using Caco-2 cells; details: human, Caco-2
Description: C-3 In Vitro Tests for Determining Cell Permeability
The cell permeability of a substance can be investigated by means of in vitro testing in a flux assay using Caco-2 cells [M. D. Troutman and D. R. Thakker, Pharm. […] For this purpose, the cells were cultured for 15-16 days on 24-well filter plates. For the determination of permeation, the respective working example was applied in a HEPES buffer to the cells either apically (A) or basally (B) and incubated for 2 hours. After 0 hours and after 2 hours, samples were taken from the cis and trans compartments. The samples were separated by HPLC (Agilent 1200, Böblingen, Germany) using reverse phase columns.
Of critical importance for toxophores which are released intracellularly is the permeability from B to A [Papp(B-A)] and the ratio of Papp(B-A) to Papp(A-B) (efflux ratio): the lower this permeability, the slower the active and passive transport processes of the substance through the monolayer of Caco-2 cells.

[2] = molecular target: T1, human kinesin spindle protein KSP/Eg5 (Homo sapiens, UniProt P52732); experiment: Inhibition of the kinesin spindle protein KSP/Eg5 (ATPase, malachite green); type: biochemical; details: 10 nM KSP motor domain, 500 μM ATP, 2 h RT
T1 construct: The motor domain of the human kinesin spindle protein KSP/Eg5; purchased tebu-bio/Cytoskeleton Inc 027EG01-XL
T1 sequence (P52732 18-359 limits assumed): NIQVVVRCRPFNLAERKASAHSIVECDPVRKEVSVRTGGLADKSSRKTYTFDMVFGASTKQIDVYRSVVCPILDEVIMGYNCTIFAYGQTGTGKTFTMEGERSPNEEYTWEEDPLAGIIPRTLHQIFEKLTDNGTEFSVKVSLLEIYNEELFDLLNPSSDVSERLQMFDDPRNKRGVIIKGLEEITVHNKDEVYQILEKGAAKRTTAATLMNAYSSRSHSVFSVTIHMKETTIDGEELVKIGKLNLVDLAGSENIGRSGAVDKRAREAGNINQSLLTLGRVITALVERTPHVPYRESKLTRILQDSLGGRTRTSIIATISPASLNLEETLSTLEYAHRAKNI
Description: C-1b Determination of the Inhibition of the Kinesin Spindle Protein KSP/Eg5 by Selected Examples
The motor domain of the human kinesin spindle protein KSP/Eg5 (from tebu-bio/Cytoskeleton Inc, No. 027EG01-XL) is incubated at a concentration of 10 nM with 50 μg/ml taxol- (from Sigma No. T7191-5MG) stabilized microtubuli (bovine or porcine, from tebu-bio/Cytoskeleton Inc) for 5 min at RT in 15 mM PIPES, pH 6.8 (5 mM MgCl2 and 10 mM DTT, from Sigma). The freshly prepared mixture is aliquoted into a 384-well MTP. The inhibitors to be examined at concentrations of 1.0×10^−6 M to 1.0×10^−13 and ATP (final concentration 500 μM, from Sigma) are then added. Incubation is at RT for 2 h. ATPase activity is detected by detecting the inorganic phosphate formed using malachite green (from Biomol). […] The individual data of the dose-activity curve are eight-fold determinations. The IC50 values are means of three independent experiments.

| Compound | Papp B→A at 2 h [1] [×10⁻⁶ cm/s] | efflux ratio at 2 h [1] | IC50 [2] [nM] |
| --- | --- | --- | --- |
| CC(C)(C)[C@H](c1nc(-c2cc(F)ccc2F)cn1Cc1ccccc1)N(CC[C@H](N)C(=O)NCCNC(=O)CN1C(=O)CC(SC[C@H](N)C(=O)O)C1=O)C(=O)CO.O=C(O)C(F)(F)F (stereo partly drawn) [Example 64, S-[1-(2-{[2-({(2S)-2-Amino-4-[{(1R)-1-[1-benzyl-4-(2,5-difluorophenyl)-1H-imidazol-2-yl]-2,2-dimethylpropyl}(glycoloyl)amino]butanoyl}amino)ethyl]amino}-2-oxoethyl)-2,5-dioxopyrrolidin-3-yl]-L-cysteine trifluoroacetic acid (1:1)] | 1 | 2.8 | 3.06 |
| C[C@H](NC(=O)CCNC(=O)[C@@H](N)CCN(C(=O)CO)[C@@H](c1nc(-c2cc(F)ccc2F)cn1Cc1ccccc1)C(C)(C)C)C(=O)N[C@@H](CCCNC(N)=O)C(=O)Nc1ccc(NC(=O)CN2C(=O)CC(SC[C@H](N)C(=O)O)C2=O)cc1 (stereo partly drawn) [Example 65, N-{(2S)-2-Amino-4-[{(1R)-1-[1-benzyl-4-(2,5-difluorophenyl)-1H-imidazol-2-yl]-2,2-dimethylpropyl}(glycoloyl)amino]butanoyl}-beta-alanyl-L-alanyl-N-(4-{[(3-{[(2R)-2-amino-2-carboxyethyl]sulphanyl}-2,5-dioxopyrrolidin-1-yl)acetyl]amino}phenyl)-N^5-carbamoyl-L-ornithinamide] | 0.12 | 2.3 | 2.03 |
| CC(C)(C)[C@H](c1nc(-c2cc(F)ccc2F)cn1Cc1ccccc1)N(CC[C@H](N)C(=O)NCCC(=O)Nc1ccc(N2C(=O)CC(SC[C@H](N)C(=O)O)C2=O)cc1)C(=O)CO (stereo partly drawn) [Example 66, S-(1-{4-[(N-{(2S)-2-Amino-4-[{(1R)-1-[1-benzyl-4-(2,5-difluorophenyl)-1H-imidazol-2-yl]-2,2-dimethylpropyl}(glycoloyl)amino]butanoyl}-beta-alanyl)amino]phenyl}-2,5-dioxopyrrolidin-3-yl)-L-cysteine] | 2.7 | 12 | 8.08 |
| CC(C)(C)[C@H](c1nc(-c2cc(F)ccc2F)cn1Cc1ccccc1)N(CC[C@H](N)C(=O)N[C@H]1CCC[C@H]1C(=O)NCCN1C(=O)CC(SC[C@H](N)C(=O)O)C1=O)C(=O)CO (stereo partly drawn) [Example 67, S-{1-[2-({[(1R,2S)-2-({(2S)-2-Amino-4-[{(1R)-1-[1-benzyl-4-(2,5-difluorophenyl)-1H-imidazol-2-yl]-2,2-dimethylpropyl}(glycoloyl)amino]butanoyl}amino)cyclopentyl]carbonyl}amino)ethyl]-2,5-dioxopyrrolidin-3-yl}-L-cysteine] | 2.5 | 15 | 8.07 |
| C[C@H](NC(=O)CCNC(=O)[C@@H](N)CCN(C(=O)CO)[C@@H](c1nc(-c2cc(F)ccc2F)cn1Cc1ccccc1)C(C)(C)C)C(=O)N[C@@H](CCCNC(N)=O)C(=O)Nc1ccc(N2C(=O)CC(SC[C@H](N)C(=O)O)C2=O)cc1 (stereo partly drawn) [Example 68, N-{(2S)-2-Amino-4-[{(1R)-1-[1-benzyl-4-(2,5-difluorophenyl)-1H-imidazol-2-yl]-2,2-dimethylpropyl}(glycoloyl)amino]butanoyl}-beta-alanyl-L-alanyl-N-[4-(3-{[(2R)-2-amino-2-carboxyethyl]sulphanyl}-2,5-dioxopyrrolidin-1-yl)phenyl]-N^5-carbamoyl-L-ornithinamide] | 0.18 | 1.9 | 3.22 |
| CC(C)[C@H](NC(=O)CCNC(=O)[C@@H](N)CCN(C(=O)CO)[C@@H](c1nc(-c2cc(F)ccc2F)cn1Cc1ccccc1)C(C)(C)C)C(=O)N[C@@H](CCCNC(N)=O)C(=O)Nc1ccc(CC(=O)NCCN2C(=O)CC(SC[C@H](N)C(=O)O)C2=O)cc1 (stereo partly drawn) [Example 69, N-{(2S)-2-Amino-4-[{(1R)-1-[1-benzyl-4-(2,5-difluorophenyl)-1H-imidazol-2-yl]-2,2-dimethylpropyl}(glycoloyl)amino]butanoyl}-beta-alanyl-L-valyl-N-[4-(2-{[2-(3-{[(2R)-2-amino-2-carboxyethyl]sulphanyl}-2,5-dioxopyrrolidin-1-yl)ethyl]amino}-2-oxoethyl)phenyl]-N^5-carbamoyl-L-ornithinamide] | 0.15 | 2 | 4.82 |
| C[C@H](NC(=O)CCNC(=O)[C@@H](N)CCN(C(=O)CO)[C@@H](c1nc(-c2cc(F)ccc2F)cn1Cc1ccccc1)C(C)(C)C)C(=O)N[C@@H](CCCNC(N)=O)C(=O)Nc1ccc(CC(=O)NCCN2C(=O)CC(SC[C@H](N)C(=O)O)C2=O)cc1 (stereo partly drawn) [Example 70, N-{(2S)-2-Amino-4-[{(1R)-1-[1-benzyl-4-(2,5-difluorophenyl)-1H-imidazol-2-yl]-2,2-dimethylpropyl}(glycoloyl)amino]butanoyl}-beta-alanyl-L-alanyl-N-[4-(2-{[2-(3-{[(2R)-2-amino-2-carboxyethyl]sulphanyl}-2,5-dioxopyrrolidin-1-yl)ethyl]amino}-2-oxoethyl)phenyl]-N^5-carbamoyl-L-ornithinamide] | 0.16 | 1.9 | 3.18 |
| CC(C)(C)[C@H](c1nc(-c2cc(F)ccc2F)cn1Cc1ccccc1)N(CC[C@H](N)C(=O)NCCOCCOCCOCCC(=O)O)C(=O)CO.O=C(O)C(F)(F)F [Example 71, (15S,19R)-15-Amino-19-[1-benzyl-4-(2,5-difluorophenyl)-1H-imidazol-2-yl]-18-glycoloyl-20,20-dimethyl-14-oxo-4,7,10-trioxa-13,18-diazahenicosan-1-oic acid/trifluoroacetic acid (1:1)] | 28 | 280 | 1.22 |
| CC(C)[C@H](NC(=O)CCNC(=O)[C@@H](N)CCN(C(=O)CO)[C@@H](c1nc(-c2cc(F)ccc2F)cn1Cc1ccccc1)C(C)(C)C)C(=O)N[C@@H](CCCNC(N)=O)C(=O)O.O=C(O)C(F)(F)F [Example 72, N-{(2S)-2-Amino-4-[{(1R)-1-[1-benzyl-4-(2,5-difluorophenyl)-1H-imidazol-2-yl]-2,2-dimethylpropyl}(glycoloyl)amino]butanoyl}-beta-alanyl-L-valyl-N^5-carbamoyl-L-ornithine/trifluoroacetic acid (1:1)] | 0.25 | 2.1 | 4.85 |
| C[C@H](NC(=O)CCNC(=O)[C@@H](N)CCN(C(=O)CO)[C@@H](c1nc(-c2cc(F)ccc2F)cn1Cc1ccccc1)C(C)(C)C)C(=O)N[C@@H](CCCNC(N)=O)C(=O)O.O=C(O)C(F)(F)F [Example 73, N-{(2S)-2-Amino-4-[{(1R)-1-[1-benzyl-4-(2,5-difluorophenyl)-1H-imidazol-2-yl]-2,2-dimethylpropyl}(glycoloyl)amino]butanoyl}-beta-alanyl-L-alanyl-N^5-carbamoyl-L-ornithine/trifluoroacetic acid (1:1)] | 0.46 | 2.7 | 4.52 |
| CC(C)(C)[C@H](c1nc(-c2cc(F)ccc2F)cn1Cc1ccccc1)N(CC[C@H](N)C(=O)NCCC(=O)N[C@@H](Cc1ccc(N)cc1)C(=O)O)C(=O)CO.O=C(O)C(F)(F)F.O=C(O)C(F)(F)F [Example 74, N-{(2S)-2-Amino-4-[{(1R)-1-[1-benzyl-4-(2,5-difluorophenyl)-1H-imidazol-2-yl]-2,2-dimethylpropyl}(glycoloyl)amino]butanoyl}-beta-alanyl-4-amino-L-phenylalanine/trifluoroacetic acid (1:2)] | 2.6 | 15 | 6.13 |
| CC(C)(C)[C@H](c1nc(-c2cc(F)ccc2F)cn1Cc1ccccc1)N(CC[C@H](N)C(=O)O)C(=O)CO.O=C(O)C(F)(F)F [Example 76, (2S)-2-Amino-4-[{(1R)-1-[1-benzyl-4-(2,5-difluorophenyl)-1H-imidazol-2-yl]-2,2-dimethylpropyl}(glycoloyl)amino]butanoic acid/trifluoroacetic acid (1:1)] | 5.5 | 27 | 2.33 |
| CC(C)(C)[C@H](c1nc(-c2cc(F)ccc2F)cn1Cc1ccccc1)N(CC[C@H](N)CN)C(=O)CO.O=C(O)C(F)(F)F [Example 78, Trifluoroacetic acid/N-{(1R)-1-[1-benzyl-4-(2,5-difluorophenyl)-1H-imidazol-2-yl]-2,2-dimethylpropyl}-N-[(3S)-3,4-diaminobutyl]-2-hydroxyacetamide (1:1)] | 14 | 44 | 4.95 |
